Like-named read-outs stand apart in the source and are kept apart here.
Columns and labels:
[1] = tested on: MAP/ERK signaling pathway (p44/42 MAP kinase); experiment: Western blot of MAP/ERK phosphorylation, EBI2 expressing CHO cell line; type: cell-based, Chinese hamster; conditions: 5 min after compound addition
Description: Cells (E2=CHO/AEQ/Gqi5/hEBI2) were seeded at 2×10^5 cell/well in a 12 well plate (TPP #92012) and incubated at 37° C./5% CO2 overnight. The next day medium was removed and cells were starved in serum-free medium for 4 h. Subsequently compound was added for 5 min at RT before cells were lysed (70 ul, 0.5% Triton-X100, 300 mM NaCl, 50 mM Tris pH7.5, Complete™ protease inhibitor cocktail Roche #04693124001). Cell lysates were resolved by gradient SDS-PAGE (NuPage™4-12%, #NP0322Box), transferred by semi-dry blotting to nitrocellulose (Invitrogen, #LC2001) and probed with a phospho p42/44 MAPK (T202/Y204) rabbit mAb (Cell Signalling #4376S). After treatment with a secondary goat anti rabbit-HRP (Pierce #41460) antibody the blots were developed for chemiluminescence (SuperSignal West Dura™, Pierce #34075) and visualized using a BioRad GEL DOC™ imaging system.

[2] = target: T1, LXRa (NR1H3) (Homo sapiens, UniProt Q13133); experiment: nuclear hormone receptor reporter gene assay; type: cell-based; conditions: concentrations up to 10 μM
T1 sequence (Q13133 1-447): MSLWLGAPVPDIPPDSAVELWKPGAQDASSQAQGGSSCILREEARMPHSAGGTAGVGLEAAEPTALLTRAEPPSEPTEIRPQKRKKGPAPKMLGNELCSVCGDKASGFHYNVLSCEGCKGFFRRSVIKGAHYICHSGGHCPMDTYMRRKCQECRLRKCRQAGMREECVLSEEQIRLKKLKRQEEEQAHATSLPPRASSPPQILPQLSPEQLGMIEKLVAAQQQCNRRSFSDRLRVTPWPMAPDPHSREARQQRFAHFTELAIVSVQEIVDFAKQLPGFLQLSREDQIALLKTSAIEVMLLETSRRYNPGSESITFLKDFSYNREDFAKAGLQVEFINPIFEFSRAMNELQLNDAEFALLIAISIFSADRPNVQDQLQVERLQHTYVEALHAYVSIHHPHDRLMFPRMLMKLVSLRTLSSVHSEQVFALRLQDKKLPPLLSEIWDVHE
Excerpt: So far oxysterols have been noted to have various physiological activities namely regulate the expression of genes that participate in both sterol and fat metabolism, serve as substrates for the synthesis of bile acids, and are intermediates in the transfer of sterols from the periphery to the liver (Russell, D. W. (2000). Oxysterol biosynthetic enzymes. Biochim. Biophys. Acta 1529, 126-135). […] This included binding assays for 26 different GPCRs, functional assays of 9 different GPCRs, 40 kinase assays, as well as selected ion channels, proteases, transporter and enzyme assays.

[3] = tested on: EBV-infected human B cells; experiment: chemotaxis trans well assay; type: cell-based; conditions: 3 hr migration
Description: (§1) B cells (RS11846 or EBV-infected human B-cells) or murine bone marrow-derived dendritic cells were washed once with medium and resuspended at 1×10^6/ml. 100 μl of this suspension was added into the wells of the filter plate and gently placed into the receiver plate containing 150 μl of a given compound dilution. The final DMSO concentration was less then 0.1%. After migration for 3 hr at 37° C. in an incubator, the filter plate was carefully removed from the receiver plate and discarded. The migrated cells in the receiver plate were resuspended and transferred into round-bottom 96-well plate, centrifuged and resuspended in 100 μl PBS containing 2% FCS and 0.1% NaN3 (FACS buffer). The input cells (100 μl) were similarly processed. For the calculation of the specific migration, a fixed number of beads (10000; Invitrogen #PCB100)) in 20 μl FACS buffer was added and the suspension was analyzed by flow cytometry using a FACS instrument PAS™ (Partec). Cells were identified based on their forward scatter (FSC) and side scatter (SSC) pattern. Chemotaxis is expressed either as total cell number or as percent of input cells.
Human peripheral B lymphocytes (PBL) were prepared from peripheral blood as a cell suspension by centrifugation on Ficoll plaque. PBL were rinsed in PBS and resuspended in complete RPMI 1640 medium (10% FCS and antibiotics) at the concentration of 2×10^7/cell/ml. […]

[4] = tested on: mouse bone marrow-derived dendritic cells (wild type); experiment: chemotaxis assay, wild type dendritic cells; type: cell-based
Description: as §1
In order to generate sufficient numbers of dendritic cells (DC) we isolated bone marrow from wild type and EBI2-deficient mice (Deltagen) and treated them in culture for 7-8 days with murine IL4 and murine GM-CSF. […]

[5] = target: hEBI2 (Homo sapiens, UniProt P32249); experiment: aequorin assay, hEBI2 stably transfected CHO-AeqGα16 cells; type: cell-based; set-up: expressed in transfected cells; host or cells: CHO-K1 expressing apoaequorin (CHO-Aeq) with Gqi5; line E2
Sequence of hEBI2 (P32249 whole entry): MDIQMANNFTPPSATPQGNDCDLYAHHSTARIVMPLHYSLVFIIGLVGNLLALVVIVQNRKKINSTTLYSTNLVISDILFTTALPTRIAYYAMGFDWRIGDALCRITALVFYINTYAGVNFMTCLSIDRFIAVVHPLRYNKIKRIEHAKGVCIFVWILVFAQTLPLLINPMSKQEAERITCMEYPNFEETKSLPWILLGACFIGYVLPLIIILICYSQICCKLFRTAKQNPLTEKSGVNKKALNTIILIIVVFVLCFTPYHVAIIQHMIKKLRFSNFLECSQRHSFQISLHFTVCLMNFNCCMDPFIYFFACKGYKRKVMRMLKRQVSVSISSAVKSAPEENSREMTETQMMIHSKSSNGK
Description: Stable cell line expressing human EBI2 (in pcDNA3.1 vector) and Gα16 was generated with parental CHO cells that stably express apo-aequorin (Euroscreen CHO-A12 cell line). The cells were seeded into 384 well black clear bottom plates (Greiner Bio-one) at 10,000 cells/25 μl well in F12 medium containing 3% FBS and incubated overnight. Coelenterazine (20 μM final) was added into the cell plates at 25 μl/well. The cell plates were returned to incubator for 3 hrs. The compounds were diluted 1:20 into an intermediate plate with Tyrode buffer (130 mM NaCl, 2 mM CaCl2, 5 mM NaHCO3, 5 mM KCl, 1 mM MgCl2, 20 mM HEPES, pH 7.4). 12.5 μl/well of pre-diluted compounds were transfered into the cell assay plate and read on LumiLux™ (Perkin Elmer) for flash luminescence.
An algorithm similar to area under curve (AUC) was created in house to analyze the aequorin kinetic data, which was named Slope Threshold (Slope 100). The algorithm defines the beginning and the end of the luminescence intensity peak by comparing the difference in intensity of each time point with an earlier time point, and determining if the difference exceeds a defined threshold, which was usually set at 100. If it does, then the intensity of the later time point is added into the Slope Threshold's sum.

C[C@H](CCCC(C)(C)O)[C@H]1CC[C@H]2[C@@H]3[C@H](O)C=C4C[C@@H](O)CC[C@]4(C)[C@H]3CC[C@]12C [7a,25DHC, cholest-5-ene-3b,7a,25-triol]
activation of MAP/ERK signaling pathway (p44/42 MAP kinase phosphorylation) [1]: potently activate
activation of LXRa [2]: did not activate
attraction (migration) of EBV-infected B cells [3]: potently attract
migration of DCs from wild type animals towards compound [4]: migrate
EC50 [5]: 18.4 nM

CC(CO)CCC[C@@H](C)[C@H]1CC[C@H]2[C@@H]3[C@H](O)C=C4C[C@@H](O)CC[C@]4(C)[C@H]3CC[C@]12C (stereo partly shown) [7a,27DHC, cholest-5-ene-3b,7a,27-triol]
activation of LXRa [2]: did not activate

C[C@H](CCCC(C)(C)O)[C@H]1CC[C@H]2[C@@H]3[C@@H](O)C=C4C[C@@H](O)CC[C@]4(C)[C@H]3CC[C@]12C [7b,25DHC, cholest-5-ene-3b,7b,25-triol]
EC50 ([5]; CHO-AeqGα16, read-out: EC50, activation of EBI2 (aequorin)): 398 nM

Source: patent US8497075B2, “Methods of identifying a modulator that inhibits the binding between Epstein-Barr virus induced receptor 2 and cholesterol derived ligands” (Novartis AG, priority 2008, dated 2013)
